Data: patent publication US20210353593A1 (Chinook Therapeutics, Inc., priority 2019, published 2021)
Like-named read-outs stand apart in the source and are kept apart here.

Key:
[1] = system: primary human renal mesangial cells (HRMCs); assay: ET-1 induced proliferation (BrdU) of primary human renal mesangial cells; format: cell-based; settings: 10 ng/mL ET-1, read-out: IC50, ET-1 induced HRMC proliferation
[2] = system: upstream regulators in kidney tissue of g-ddY mice; assay: IPA upstream regulator analysis, g-ddY mouse kidney RNA-seq; format: in vivo; settings: 30 mg/kg/day
[3] = system: IL-6 production in primary human mesangial cells; assay: ET-1 induced IL-6 production (ELISA) in primary human renal mesangial cells; format: cell-based; settings: 72 hours; 10 ng/mL ET-1; read-out: IC50, ET-1 stimulated IL-6 production in HRMCs
ET-1 stimulated HRMC = assay: Hallmark gene set enrichment in ET-1 stimulated HRMC treated with atrasentan; format: cell-based, human; settings: atrasentan at 1 nM and 25 nM
[4] = patients with diabetic kidney disease; cited from earlier work

CCCCN(CCCC)C(=O)CN1C[C@H](c2ccc3c(c2)OCO3)[C@@H](C(=O)O)[C@@H]1c1ccc(OC)cc1 [Atrasentan, (2R,3R,4S)-4-(1,3-benzodioxol-5-yl)-1-[2-(dibutylamino)-2-oxoethyl]-2-(4-methoxyphenyl)pyrrolidine-3-carboxylic acid]
IC50 ([1]; 48 hours): 4.2 nM | IC50 ([1]; Homo sapiens, Mesangial cell, 48 h): ~5.1 nM | IC50 ([1]; Homo sapiens, Mesangial cell, 72 h): ~50.8 nM | 26s Proteasome Activation z-score [2]: −2.122 | 26s Proteasome Predicted Activation State [2]: Inhibited | ADGRF5 Activation z-score [2]: 2 | ADGRF5 Predicted Activation State [2]: Activated | AGT Activation z-score [2]: −4.741 | AGT Predicted Activation State [2]: Inhibited | BMP2 Activation z-score [2]: −2.435 | BMP2 Predicted Activation State [2]: Inhibited | CCL5 Activation z-score [2]: −2.268 | CCL5 Predicted Activation State [2]: Inhibited | CCN5 Activation z-score [2]: 2.45 | CCN5 Predicted Activation State [2]: Activated | CCR2 Activation z-score [2]: −3.791 | CCR2 Predicted Activation State [2]: Inhibited | CD40LG Activation z-score [2]: −3.607 | CD40LG Predicted Activation State [2]: Inhibited | CG Activation z-score [2]: −4.34 | CG Predicted Activation State [2]: Inhibited | CHRM3 Activation z-score [2]: −2.425 | CHRM3 Predicted Activation State [2]: Inhibited | CSF2 Activation z-score [2]: −5.645 | CSF2 Predicted Activation State [2]: Inhibited | CSF3 Activation z-score [2]: −3.116 | CSF3 Predicted Activation State [2]: Inhibited | CXCL12 Activation z-score [2]: −2.851 | CXCL12 Predicted Activation State [2]: Inhibited | DKK1 Activation z-score [2]: 2.113 | DKK1 Predicted Activation State [2]: Activated | EDN1 Activation z-score [2]: −4.26 | EDN1 Predicted Activation State [2]: Inhibited | EDNRA Activation z-score [2]: −2.449 | EDNRA Predicted Activation State [2]: Inhibited | EGF Activation z-score [2]: −3.649 | EGF Predicted Activation State [2]: Inhibited | F2R Activation z-score [2]: −3.04 | F2R Predicted Activation State [2]: Inhibited | F3 Activation z-score [2]: −3.862 | F3 Predicted Activation State [2]: Inhibited | FAS Activation z-score [2]: 2.887 | FAS Predicted Activation State [2]: Activated | FCGR1A Activation z-score [2]: −2.201 | FCGR1A Predicted Activation State [2]: Inhibited | FGF2 Activation z-score [2]: −4.33 | FGF2 Predicted Activation State [2]: Inhibited | FGF23 Activation z-score [2]: −2.497 | FGF23 Predicted Activation State [2]: Inhibited | GDF2 Activation z-score [2]: −2.055 | GDF2 Predicted Activation State [2]: Inhibited | GPER1 Activation z-score [2]: −3.527 | GPER1 Predicted Activation State [2]: Inhibited | HGF Activation z-score [2]: −5.138 | HGF Predicted Activation State [2]: Inhibited | HTR7 Activation z-score [2]: −2.219 | HTR7 Predicted Activation State [2]: Inhibited | IFNA2 Activation z-score [2]: −3.465 | IFNA2 Predicted Activation State [2]: Inhibited | IFNAR1 Activation z-score [2]: −3.094 | IFNAR1 Predicted Activation State [2]: Inhibited | IFNG Activation z-score [2]: −4.604 | IFNG Predicted Activation State [2]: Inhibited | IGF1 Activation z-score [2]: −2.676 | IGF1 Predicted Activation State [2]: Inhibited | IGF1R Activation z-score [2]: 2.165 | IGF1R Predicted Activation State [2]: Activated | IL1A Activation z-score [2]: −4.942 | IL1A Predicted Activation State [2]: Inhibited | IL1B Activation z-score [2]: −7.154 | IL1B Predicted Activation State [2]: Inhibited | IL2 Activation z-score [2]: −4.023 | IL2 Predicted Activation State [2]: Inhibited | IL3 Activation z-score [2]: −3.894 | IL3 Predicted Activation State [2]: Inhibited | IL6 Activation z-score [2]: −3.872 | IL6 Predicted Activation State [2]: Inhibited | IL6R Activation z-score [2]: −2.179 | IL6R Predicted Activation State [2]: Inhibited | IL10 Activation z-score [2]: −2.775 | IL10 Predicted Activation State [2]: Inhibited | IL21 Activation z-score [2]: −2.886 | IL21 Predicted Activation State [2]: Inhibited | IL33 Activation z-score [2]: −3.781 | IL33 Predicted Activation State [2]: Inhibited | Ifn gamma Activation z-score [2]: −3.354 | Ifn gamma Predicted Activation State [2]: Inhibited | Ige Activation z-score [2]: −4.883 | Ige Predicted Activation State [2]: Inhibited | LDL Activation z-score [2]: −3.568 | LDL Predicted Activation State [2]: Inhibited | LGR5 Activation z-score [2]: 2.137 | LGR5 Predicted Activation State [2]: Activated | Laminin (complex) Activation z-score [2]: 2.043 | Laminin (complex) Predicted Activation State [2]: Activated | NFkB (complex) Activation z-score [2]: −5.503 | NFkB (complex) Predicted Activation State [2]: Inhibited | NRG1 Activation z-score [2]: −3.478 | NRG1 Predicted Activation State [2]: Inhibited | OSM Activation z-score [2]: −5.912 | OSM Predicted Activation State [2]: Inhibited | PDGF BB Activation z-score [2]: −3.976 | PDGF BB Predicted Activation State [2]: Inhibited | PDGFB Activation z-score [2]: −2.622 | PDGFB Predicted Activation State [2]: Inhibited | PF4 Activation z-score [2]: −2.219 | PF4 Predicted Activation State [2]: Inhibited | PI3K (complex) Activation z-score [2]: −3.293 | PI3K (complex) Predicted Activation State [2]: Inhibited | PLA2R1 Activation z-score [2]: 2.917 | PLA2R1 Predicted Activation State [2]: Activated | PRL Activation z-score [2]: −3.529 | PRL Predicted Activation State [2]: Inhibited | PROKR1 Activation z-score [2]: 2 | PROKR1 Predicted Activation State [2]: Activated | PTGER4 Activation z-score [2]: 2.017 | PTGER4 Predicted Activation State [2]: Activated | Pdgf (complex) Activation z-score [2]: −2.779 | Pdgf (complex) Predicted Activation State [2]: Inhibited | SMO Activation z-score [2]: 2.621 | SMO Predicted Activation State [2]: Activated | TCR Activation z-score [2]: −2.362 | TCR Predicted Activation State [2]: Inhibited | TGFB1 Activation z-score [2]: −5.163 | TGFB1 Predicted Activation State [2]: Inhibited | TGFB2 Activation z-score [2]: −2.631 | TGFB2 Predicted Activation State [2]: Inhibited | TGFB3 Activation z-score [2]: −2.663 | TGFB3 Predicted Activation State [2]: Inhibited | TLR3 Activation z-score [2]: −5.02 | TLR3 Predicted Activation State [2]: Inhibited | TLR4 Activation z-score [2]: −4.561 | TLR4 Predicted Activation State [2]: Inhibited | TLR9 Activation z-score [2]: −4.894 | TLR9 Predicted Activation State [2]: Inhibited | TNF Activation z-score [2]: −6.593 | TNF Predicted Activation State [2]: Inhibited | TNFRSF1A Activation z-score [2]: −2.449 | TNFRSF1A Predicted Activation State [2]: Inhibited | TNFSF11 Activation z-score [2]: −2.519 | TNFSF11 Predicted Activation State [2]: Inhibited | TNFSF12 Activation z-score [2]: −3.271 | TNFSF12 Predicted Activation State [2]: Inhibited | TREM1 Activation z-score [2]: −3.62 | TREM1 Predicted Activation State [2]: Inhibited | TSLP Activation z-score [2]: −2.533 | TSLP Predicted Activation State [2]: Inhibited | TYROBP Activation z-score [2]: −2.376 | TYROBP Predicted Activation State [2]: Inhibited | VEGFA Activation z-score [2]: −2.501 | VEGFA Predicted Activation State [2]: Inhibited | VEGFB Activation z-score [2]: 3.128 | VEGFB Predicted Activation State [2]: Activated | WNT3A Activation z-score [2]: −3.711 | WNT3A Predicted Activation State [2]: Inhibited | IC50 [3]: 0.65 nM | hallmark gene set enrichment in HRMC model (ET-1 stimulated HRMC): under-expression of hallmark gene sets | risk of renal events (doubling of serum creatinine or end-stage kidney disease) [4]: significantly reducing the risk of renal events
